Measurements from patent US11802120B2, “Fused cyclic urea derivatives as CRHR2 antagonist” (RaQualia Pharma Inc., priority 2018, dated 2023).

Target: T1, human CRHR2-alpha (Homo sapiens, UniProt Q13324)
T1 sequence (Q13324 1-411): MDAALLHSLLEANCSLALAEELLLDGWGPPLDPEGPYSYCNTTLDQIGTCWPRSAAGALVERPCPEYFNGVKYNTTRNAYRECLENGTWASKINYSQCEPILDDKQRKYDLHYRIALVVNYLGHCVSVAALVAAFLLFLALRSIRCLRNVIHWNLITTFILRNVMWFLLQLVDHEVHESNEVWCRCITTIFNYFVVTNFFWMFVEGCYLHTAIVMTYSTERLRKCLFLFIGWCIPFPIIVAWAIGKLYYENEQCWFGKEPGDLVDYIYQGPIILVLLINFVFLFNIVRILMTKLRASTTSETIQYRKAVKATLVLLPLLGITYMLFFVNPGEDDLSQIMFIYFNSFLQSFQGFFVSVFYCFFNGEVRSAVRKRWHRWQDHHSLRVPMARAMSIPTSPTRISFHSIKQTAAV
Assay: cAMP functional assay for human CRHR2 (LANCE Ultra cAMP, TR-FRET)
Format: cell-based
Conditions: CHO-K1 cells expressing human CRHR2-alpha, agonist human urocortin2 at EC80, cAMP; read-out: IC50 against CRHR2
Method in brief: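 Inhibition of agonist-driven cAMP was assessed in recombinant CHO-K1 cells at 25° C, using 30 min compound pretreatment and 30 min stimulation with EC80 human urocortin2 (CRHR2) or CRF (CRHR1). IC50 came from dose-response fitting.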

IC50, < 0.3 µM:
Cc1ncc(Cl)cc1C(=O)N[C@H]1CC[C@H](Cn2c(=O)n(-c3ccccc3C#N)c3ccccc32)CC1 [Example 219, 5-chloro-N-((1r,4r)-4-((3-(2-cyanophenyl)-2-oxo-2,3-dihydro-1H-benzo[d]imidazol-1-yl)methyl)cyclohexyl)-2-methylnicotinamide]
CCn1nc2ccccc2c1C(=O)N[C@H]1CC[C@H](Cn2c(=O)n(-c3ccc(C(=O)NC)nc3)c3ccccc32)CC1 [Example 166, 2-ethyl-N-((1r,4r)-4-((3-(6-(methylcarbamoyl)pyridin-3-yl)-2-oxo-2,3-dihydro-1H-benzo [d]imidazol-1-yl)methyl)cyclo-hexyl)-2H-indazole-3-carboxamide]
COCc1ncc(Cl)cc1C(=O)N[C@H]1CC[C@H](Cn2c(=O)n(-c3ccc(C)nc3)c3ccccc32)CC1 [Example 329, 5-chloro-2-(methoxymethyl)-N-((1r,4r)-4-((3-(6-methyl-pyridin-3-yl)-2-oxo-2,3-dihydro-1H-benzo[d]imidazol-1-yl)methyl)cyclohexyl) nicotinamide]
COCCNc1ccc(-n2c(=O)n(C[C@H]3CC[C@H](NC(=O)c4cc(Cl)cnc4C(F)(F)F)CC3)c3ccccc32)cn1 [Example 664, 5-chloro-N-((1r,4r)-4-((3-(6-((2-methoxyethyl)amino)pyridin-3-yl)-2-oxo-2,3-dihydro-1H-benzo[d]imidazol-1-yl)methyl)cyclohexyl)-2-(trifluoromethyl)nicotinamide]
COc1ccc(Cl)c(-n2c(=O)n(C[C@H]3CC[C@H](NC(=O)c4cc(Cl)cnc4C(F)F)CC3)c3cccnc32)c1 [Example 453, 5-chloro-N-((1r,4r)-4-((3-(2-chloro-5-methoxyphenyl)-2-oxo-2,3-dihydro-1H-imidazo [4,5-b]pyridin-1-yl)methyl)cyclohexyl)-2-(difluoromethyl) nicotinamide]
CCC(=O)Nc1cc(C)c(-n2c(=O)n(C[C@H]3CC[C@H](NC(=O)c4cc(Cl)cnc4C(F)F)CC3)c3ccccc32)cn1 [Example 560, 5-chloro-2-(difluoromethyl)-N-((1r,4r)-4-((3-(4-methyl-6-propionamidopyridin-3-yl)-2-oxo-2,3-dihydro-1H-benzo [d]imidazol-1-yl)methyl)cyclo-hexyl)nicotinamide]
Cc1ncc(Cl)cc1C(=O)N[C@H]1CC[C@H](Cn2c(=O)n(-c3ccc4c(C(N)=O)noc4c3)c3ccccc32)CC1 [Example 243, 6-(3-(((1r,4r)-4-(5-chloro-2-methylnicotinamido)cyclohexyl)methyl)-2-oxo-2,3-dihydro-1H-benzo[d]imidazol-1-yl)benzo[d]isoxazole-3-carboxamide]
O=C(N[C@H]1CC[C@H](Cn2c(=O)n(-c3cccc(N4CCNC4=O)n3)c3ccccc32)CC1)c1cc(Cl)cnc1C(F)F [Example 773, 5-chloro-2-(difluoromethyl)-N-((1r,4r)-4-((2-oxo-3-(6-(2-oxoimidazolidin-1-yl)pyridin-2-yl)-2,3-dihydro-1H-benzo [d]imidazol-1-yl)methyl)cyclo-hexyl)nicotinamide]
COc1ccc(-n2c(=O)n(C[C@H]3CC[C@H](NC(=O)c4cc(Cl)cnc4C)CC3)c3cccc(C)c32)cn1 [Example 58, 5-chloro-N-((1r,4r)-4-((3-(6-methoxypyridin-3-yl)-4-methyl-2-oxo-2,3-dihydro-1H-benzo[d]imidazol-1-yl)methyl)cyclohexyl)-2-methylnicotinamide]
Cc1ncc(Cl)cc1C(=O)N[C@H]1CC[C@H](Cn2c(=O)n(-c3ccc(N(C)C)cn3)c3ccccc32)CC1 [Example 647, 5-chloro-N-((1r,4r)-4-((3-(5-(dimethylamino)pyridin-2-yl)-2-oxo-2,3-dihydro-1H-benzo [d]imidazol-1-yl)methyl)cyclo-hexyl)-2-methylnicotinamide]
Cc1ncc(Cl)cc1C(=O)N[C@H]1CC[C@H](Cn2c(=O)n(-c3ccc4c(Cl)n[nH]c4c3)c3ccccc32)CC1 [Example 210, 5-chloro-N-((1r,4r)-4-((3-(3-chloro-1H-indazol-6-yl)-2-oxo-2,3-dihydro-1H-benzo[d]imidazol-1-yl)methyl)cyclohexyl)-2-methylnicotinamide]
O=C(N[C@H]1CC[C@H](Cn2c(=O)n(-c3cnc4ncccc4c3)c3ccccc32)CC1)c1cc(Cl)cnc1C(F)F [Example 393, N-((1r,4r)-4-((3-(1,8-naph-thyridin-3-yl)-2-oxo-2,3-dihydro-1H-benzo[d]imidazol-1-yl)methyl)cyclohexyl)-5-chloro-2-(difluoromethyl) nicotinamide]
Cc1cnccc1-n1c(=O)n(C[C@H]2CC[C@H](NC(=O)c3cc(Cl)cnc3C(F)(F)F)CC2)c2ccccc21 [Example 289, 5-chloro-N-((1r,4r)-4-((3-(3-methylpyridin-4-yl)-2-oxo-2,3-dihydro-1H-benzo[d]imidazol-1-yl)methyl)cyclo-hexyl)-2-(trifluoromethyl) nicotinamide]
O=C(N[C@H]1CC[C@H](Cn2c(=O)n(Cc3cscn3)c3ccccc32)CC1)c1cc(Cl)cnc1C(F)(F)F [Example 314, 5-chloro-N-((1r,4r)-4-((2-oxo-3-(thiazol-4-ylmethyl)-2,3-dihydro-1H-benzo[d]imidazol-1-yl)methyl)cyclo-hexyl)-2-(trifluoromethyl) nicotinamide]
Cc1ncc(Cl)cc1C(=O)N[C@H]1CC[C@H](Cn2c(=O)n(-c3ccc(NC[C@@H]4CCCO4)nc3)c3ccccc32)CC1 [Example 109, 5-chloro-2-methyl-N-((1S,4r)-4-((2-oxo-3-(6-((((S)-tetrahydro-furan-2-yl)methyl)amino)pyridin-3-yl)-2,3-dihydro-1H-benzo[d]imidazol-1-yl)methyl)cyclohexyl)nicotinamide]
Cc1ncc(Cl)cc1C(=O)N[C@H]1CC[C@H](Cn2c(=O)n(-c3ccc(-c4cn[nH]c4)nc3)c3ccccc32)CC1 [Example 203, N-((1r,4r)-4-((3-(6-(1H-pyrazol-4-yl)pyridin-3-yl)-2-oxo-2,3-dihydro-1H-benzo[d]imidazol-1-yl)methyl)cyclohexyl)-5-chloro-2-methylnicotinamide]
Cc1ncc(Cl)cc1C(=O)N[C@H]1CC[C@H](Cn2c(=O)n(-c3cncc(-c4cnco4)c3)c3ccccc32)CC1 [Example 485, 5-chloro-2-methyl-N-((1r,4r)-4-((3-(5-(oxazol-5-yl)pyridin-3-yl)-2-oxo-2,3-dihydro-1H-benzo[d]imidazol-1-yl)methyl)cyclohexyl)nicotinamide]
Cc1ncc(Cl)cc1C(=O)N[C@H]1CC[C@H](Cn2c(=O)n(-c3ccc4nccn4c3)c3ccccc32)CC1 [Example 186, 5-chloro-N-((1r,4r)-4-((3-(imidazo[1,2-a]pyridin-6-yl)-2-oxo-2,3-dihydro-1H-benzo [d]imidazol-1-yl)methyl)cyclohexyl)-2-methylnico-tinamide]
Cc1ncc(Cl)cc1C(=O)N[C@H]1CC[C@H](Cn2c(=O)n(-c3ccc(C(=O)Nc4cncnc4)nc3)c3ccccc32)CC1 [Example 178, 5-(3-(((1r,4r)-4-(5-chloro-2-methylnicotinamido)cyclo-hexyl)methyl)-2-oxo-2,3-dihydro-1H-benzo[d]imidazol-1-yl)-N-(pyrimidin-5-yl) picolinamide]
O=C(N[C@H]1CC[C@H](Cn2c(=O)n(-c3ccc(OCCO)nc3)c3ccccc32)CC1)c1cc(Cl)cnc1C(F)F [Example 365, 5-chloro-2-(difluoromethyl)-N-((1r,4r)-4-((3-(6-(2-hydroxyethoxy)pyridin-3-yl)-2-oxo-2,3-dihydro-1H-benzo[d]imidazol-1-yl)methyl)cyclohexyl)nicotinamide]
CNC(=O)c1ccc(-n2c(=O)n(C[C@H]3CC[C@H](NC(=O)c4cc(C)ccc4C(F)(F)F)CC3)c3ccccc32)cn1 [Example 492, N-methyl-5-(3-(((1r,4r)-4-(5-methyl-2-(trifluoro-methyl)benzamido)cyclo-hexyl)methyl)-2-oxo-2,3-dihydro-1H-benzo[d]imidazol-1-yl)picolinamide]
O=C(NCCF)c1ccc(-n2c(=O)n(C[C@H]3CC[C@H](NC(=O)c4cc(Cl)cnc4C(F)F)CC3)c3ccccc32)cn1 [Example 549, 5-(3-(((1r,4r)-4-(5-chloro-2-(difluoromethyl)nicotina-mido)cyclohexyl)methyl)-2-oxo-2,3-dihydro-1H-benzo[d]imidazol-1-yl)-N-(2-fluoroethyl)picolinamide]
Cc1ccc(-n2c(=O)n(C[C@H]3CC[C@H](NC(=O)c4cc(Cl)cnc4C(F)F)CC3)c3ccccc32)cn1 [Example 324, 5-chloro-2-(difluoromethyl)-N-((1r,4r)-4-((3-(6-methyl-pyridin-3-yl)-2-oxo-2,3-dihydro-1H-benzo[d]imidazol-1-yl)methyl)cyclohexyl)nico-tinamide]
